Structures are written as SMILES.

The values that follow come from patent US20240101546A1, “HETEROARYL-ACETYLENES, PHARMACEUTICAL COMPOSITIONS THEREOF, AND THEIR THERAPEUTIC APPLICATIONS” (Eubulus Biotherapeutics Inc., priority 2020, published 2024).

For this experiment, the system named is lung cancer cell line NCI-H82. The experiment can be described thus: Cell proliferation assay, NCI-H82 (CELL-TITER GLO). Format: cell-based. The following applies: Homo sapiens, NCI-H82, 72 h, NCI-H82 cells, 72 h incubation, cell viability by CELL-TITER GLO, top concentration 1 μM; read-out: EC50, Inhibition of NCl-H82 Cell Proliferation. The method, boiled down: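 NCI-H82 cells, 1,000 per well in RPMI1640, were treated after overnight plating with a 3-fold dilution series from 1 μM. Viability read by CellTiter-Glo luminescence after 72 h. EC50 derived from the curves.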
Regarding `C#Cc1nc(NC(=O)N[C@H](CO)C2CCN(c3ccccc3C#N)CC2)cs1` [Compound A151, (S)-1-(1-(1-(2-Cyanophenyl)piperidin-4-yl)-2-hydroxyethyl)-3-(2-ethynylthiazol-4-yl)urea], the EC50 was not above 0.2 µM.
For `C#Cc1nc(NC(=O)N[C@@H](CO)c2ccc(C3=CCCCC3)cc2)cs1` [Compound A183, (R)-1-(2-Ethynylthiazol-4-yl)-3-(2-hydroxy-1-(2′,3′,4′,5′-tetrahydro-[1,1′-biphenyl]-4-yl)ethyl)urea] the value was not above 0.2 µM; for `C#Cc1nc(NC(=O)NCC2CC=C(c3cccc(C4(C#N)CC4)c3)CC2)cs1` (stereo not shown) [Compound A239, 1-((3′-(1-Cyanocyclopropyl)-2,3,4,5-tetrahydro-[1,1′-biphenyl]-4-yl)methyl)-3-(2-ethynylthiazol-4-yl)urea], not above 0.2 µM; for `C#Cc1nc(NC(=O)N[C@@H](COC(N)=O)c2ccc(-c3ccc(F)cc3C3(C#N)CC3)cn2)cs1` [Compound A76, (R)-2-(5-(2-(1-Cyanocyclopropyl)-4-fluorophenyl)pyridin-2-yl)-2-(3-(2-ethynyl-thiazol-4-yl)ureido)ethyl carbamate], not above 0.2 µM.
For `C#Cc1nc(NC(=O)N[C@@H](CO)C(=O)N2CCC(F)(F)CC2)cs1` [Compound A161, (S)-1-(1-(4,4-Difluoropiperidin-1-yl)-3-hydroxy-1-oxopropan-2-yl)-3-(2-ethynyl-thiazol-4-yl)urea] the value was not above 0.2 µM; for `C#Cc1nc(NC(=O)N[C@@H](CS(=O)(=O)NC)c2ccc(-c3cccc4ncsc34)cc2)cs1` [Compound A199, (R)-2-(4-(Benzo[d]thiazol-7-yl)phenyl)-2-(3-(2-ethynylthiazol-4-yl)ureido)-N-methylethane-1-sulfonamide], not above 0.2 µM; for `C#Cc1nc(NC(=O)N[C@@H](COC(N)=O)c2ccc(-c3ccccc3C#N)cc2)cs1` [Compound A46, (R)-2-(2′-Cyano-[1,1′-biphenyl]-4-yl)-2-(3-(2-ethynylthiazol-4-yl)ureido)ethyl carbamate], not above 0.2 µM.
As for `C#Cc1nc(NC(=O)N[C@@H](COC(N)=O)c2ccc(N3CC(F)(F)C3)cc2)cs1` [Compound A127, (R)-2-(4-(3,3-Difluoroazetidin-1-yl)phenyl)-2-(3-(2-ethynylthiazol-4-yl)ureido)-ethyl carbamate], the figure is not above 0.2 µM; as for `C#Cc1nc(NC(=O)N2CCN(c3ccc(-c4cccc5ncsc45)cc3)C[C@H]2CO)cs1` [Compound B23, (S)-4-(4-(Benzo[d]thiazol-7-yl)phenyl)-N-(2-ethynylthiazol-4-yl)-2-(hydroxy-methyl)piperazine-1-carboxamide], not above 0.2 µM.
`C#Cc1nc(NC(=O)N[C@@H](CO)c2ccc(N3CCCc4c3cnn4C)cc2)cs1` [Compound A139, (R)-1-(2-Ethynylthiazol-4-yl)-3-(2-hydroxy-1-(4-(1-methyl-1,5,6,7-tetrahydro-4H-pyrazolo[4,3-b]pyridin-4-yl)phenyl)ethyl)urea]: the EC50 is not above 0.2 µM.
As for `C#Cc1nc(NC(=O)N[C@@H](COC(N)=O)c2ccc(-c3cccc4c3cnn4C)cc2)cs1` [Compound A231, (R)-2-(3-(2-Ethynylthiazol-4-yl)ureido)-2-(4-(1-methyl-1H-indazol-4-yl)phenyl)-ethyl carbamate], the figure is not above 0.2 µM.
As for `C#Cc1nc(NC(=O)N(CCO)Cc2ccc(-c3cccc4ncsc34)cc2)cs1` [Compound A206, 1-(4-(Benzo[d]thiazol-7-yl)benzyl)-3-(2-ethynylthiazol-4-yl)-1-(2-hydroxyethyl)-urea], the figure is not above 0.2 µM.
As for `C#Cc1nc(NC(=O)N[C@@H](C(=O)NC)c2ccc(-c3cccc(C4(O)CC4)c3)cc2)cs1` [Compound A218, (R)-2-(3-(2-Ethynylthiazol-4-yl)ureido)-2-(3′-(1-hydroxycyclopropyl)-[1,1′-biphenyl]-4-yl)-N-methylacetamide], the figure is not above 0.2 µM; as for `C#Cc1nc(NC(=O)N[C@@H](CO)c2ccc(-n3ccccc3=O)cc2)cs1` [Compound A132, (R)-1-(2-Ethynylthiazol-4-yl)-3-(2-hydroxy-1-(4-(2-oxopyridin-1(2H)-yl)phenyl)-ethyl)urea], not above 0.2 µM.
For `C#Cc1nc(NC(=O)NCc2ccc(-c3cccc(N4CCCC4)n3)cc2)cs1` [Compound A176, 1-(2-Ethynylthiazol-4-yl)-3-(4-(6-(pyrrolidin-1-yl)pyridin-2-yl)benzyl)urea], the EC50 was not above 0.2 µM.
As for `C#Cc1nc(NC(=O)N[C@@H](CO)c2ccc(N3CCCCC3)cn2)cs1` [Compound A135, (R)-1-(2-Ethynylthiazol-4-yl)-3-(2-hydroxy-1-(5-(piperidin-1-yl)pyridin-2-yl)-ethyl)urea], the figure is not above 0.2 µM; as for `C#Cc1nc(NC(=O)N[C@@H](COC(=O)[C@@H](N)C(C)C)c2ccc(-c3cccc4ncsc34)cc2)cs1` [Compound A116, (R)-2-(4-(Benzo[d]thiazol-7-yl)phenyl)-2-(3-(2-ethynylthiazol-4-yl)ureido)ethyl L-valinate], not above 0.2 µM; as for `C#Cc1nc(NC(=O)NCc2ccc(-c3cccc4nc(OCCO)nc(O)c34)cc2)cs1` [Compound A172, 1-(2-Ethynylthiazol-4-yl)-3-(4-(4-hydroxy-2-(2-hydroxyethoxy)quinazolin-5-yl)-benzyl)urea], not above 0.2 µM.
Turning to `C#Cc1ncc(NC(=O)N[C@@H](CO)c2ccc(-c3cccc4ncsc34)cc2)s1` [Compound A118, (R)-1-(1-(4-(Benzo[d]thiazol-7-yl)phenyl)-2-hydroxyethyl)-3-(2-ethynylthiazol-5-yl)urea], the EC50 fell in the range of 0.2 to 1 µM.
Consider `C#Cc1nc(NC(=O)N[C@@H](CO)c2ccc(N3CCCCC3=O)cc2)cs1` [Compound A131, (R)-1-(2-Ethynylthiazol-4-yl)-3-(2-hydroxy-1-(4-(2-oxopiperidin-1-yl)phenyl)-ethyl)urea], for which the EC50 was not above 0.2 µM.
Take `C#Cc1nc(NC(=O)N[C@@H](COC(N)=O)c2ccc(-c3cccnc3N(C)C)cc2)cs1` [Compound A99, (R)-2-(4-(2-(Dimethylamino)pyridin-3-yl)phenyl)-2-(3-(2-ethynylthiazol-4-yl)-ureido)ethyl carbamate]: the EC50 was not above 0.2 µM.
As for `C#Cc1nc(NC(=O)N[C@@H](CO)c2ccc(N3CCOCC3)cc2)cs1` [Compound A133, (R)-1-(2-Ethynylthiazol-4-yl)-3-(2-hydroxy-1-(4-morpholinophenyl)ethyl)urea], the EC50 was not above 0.2 µM.
For `C#Cc1nc(NC(=O)N[C@@H](CO)C(=O)N2CCN(c3ccccc3C#N)CC2)cs1` [Compound A149, (S)-1-(1-(4-(2-Cyanophenyl)piperazin-1-yl)-3-hydroxy-1-oxopropan-2-yl)-3-(2-ethynylthiazol-4-yl)urea] the value was not above 0.2 µM; for `C#Cc1nc(NC(=O)N[C@@H](CO)C2CCN(c3ccccc3C#N)CC2)cs1` [Compound A150, (R)-1-(1-(1-(2-Cyanophenyl)piperidin-4-yl)-2-hydroxyethyl)-3-(2-ethynylthiazol-4-yl)urea], not above 0.2 µM.
As for `C#Cc1nc(NC(=O)N[C@@H](CO)c2ccc(-c3cc(F)ccc3C3(C#N)CC3)cn2)cs1` [Compound A77, (R)-1-(1-(5-(2-(1-Cyanocyclopropyl)-5-fluorophenyl)pyridin-2-yl)-2-hydroxyethyl)-3-(2-ethynylthiazol-4-yl)urea], the figure is not above 0.2 µM; as for `C#Cc1nc(NC(=O)N[C@@H](COC(N)=O)c2ccc(-c3ccccc3C3(C#N)CC3)cn2)cs1` [Compound A60, (R)-2-(5-(2-(1-Cyanocyclopropyl)phenyl)pyridin-2-yl)-2-(3-(2-ethynylthiazol-4-yl)ureido)ethyl carbamate], not above 0.2 µM; as for `C#Cc1nc(NC(=O)N(C)[C@@H](CO)c2ccc(-c3cccc4ncsc34)cc2)cs1` [Compound A111, (R)-1-(1-(4-(Benzo[d]thiazol-7-yl)phenyl)-2-hydroxyethyl)-3-(2-ethynylthiazol-4-yl)-1-methylurea], not above 0.2 µM.
As for `C#Cc1nc(NC(=O)N[C@@H](C(=O)N(C)C)c2ccc(-c3cccc4ncsc34)cc2)cs1` [Compound A220, (R)-2-(4-(Benzo[d]thiazol-7-yl)phenyl)-2-(3-(2-ethynylthiazol-4-yl)ureido)-N,N-dimethylacetamide], the figure is not above 0.2 µM.
On to `C#Cc1nc(NC(=O)NCc2ccc(-c3cccc(C4(C#N)CC4)c3)nc2)cs1` [Compound A180, 1-((6-(3-(1-Cyanocyclopropyl)phenyl)pyridin-3-yl)methyl)-3-(2-ethynylthiazol-4-yl)urea], for which the EC50 was not above 0.2 µM.
For `C#Cc1nc(NC(=O)N[C@@H](C(=O)NC)c2ccc(-c3cccnc3C3(C#N)CC3)cc2)cs1` [Compound A43, (R)-2-(4-(2-(1-Cyanocyclopropyl)pyridin-3-yl)phenyl)-2-(3-(2-ethynylthiazol-4-yl)ureido)-N-methylacetamide] the value was not above 0.2 µM; for `C#Cc1nccc(NC(=O)N[C@@H](CO)c2ccc(-c3cccc(N4CCCC4)n3)cc2)n1` [Compound A125, (R)-1-(2-Ethynylpyrimidin-4-yl)-3-(2-hydroxy-1-(4-(6-(pyrrolidin-1-yl)pyridin-2-yl)phenyl)ethyl)urea], not above 0.2 µM; for `C#Cc1nc(NC(=O)NCc2ccc(-c3cccc4ncsc34)cn2)cs1` [Compound A179, 1-((5-(Benzo[d]thiazol-7-yl)pyridin-2-yl)methyl)-3-(2-ethynylthiazol-4-yl)urea], not above 0.2 µM.
As for `C#Cc1nc(NC(=O)N[C@@H](CO)c2ccc(-c3cccc4c3c(C#N)nn4C)cc2)cs1` [Compound A53, (R)-1-(1-(4-(3-Cyano-1-methyl-1H-indazol-4-yl)phenyl)-2-hydroxyethyl)-3-(2-ethynylthiazol-4-yl)urea], the figure is not above 0.2 µM; as for `C#Cc1nc(NC(=O)N[C@@H](CS(N)(=O)=O)c2ccc(-c3cccnc3C3(C#N)CC3)c(Cl)c2)cs1` [Compound A73, (R)-2-(3-Chloro-4-(2-(1-cyanocyclopropyl)pyridin-3-yl)phenyl)-2-(3-(2-ethynyl-thiazol-4-yl)ureido)ethanesulfonamide], not above 0.2 µM.
